Laboratory results published in ChEMBL document CHEMBL3414493, “Design, synthesis and anticholinesterase activity of novel benzylidenechroman-4-ones bearing cyclic amine side chain” (Eur J Med Chem, 2015).

Key:
Cholinesterase = Cholinesterase (Equus caballus, UniProt P81908)
Description: Inhibition of equine serum BuChE pre-incubated for 3 mins before butyrylthiocholine substrate addition by Ellman's reagent based spectrophotometry

Acetylcholinesterase [1] = molecular target: T1, Acetylcholinesterase (Electrophorus electricus, UniProt O42275)
Description: Inhibition of electric eel AChE pre-incubated for 3 mins before acetylthiocholine substrate addition by Ellman's reagent based spectrophotometry

Acetylcholinesterase [2] = molecular target: T1, Acetylcholinesterase; remark: listed apart in the source
Description: Inhibition of electric eel AChE pre-incubated for 3 mins before acetylthiocholine substrate addition by Lineweaver-Burk plot

T1 sequence (O42275 whole entry): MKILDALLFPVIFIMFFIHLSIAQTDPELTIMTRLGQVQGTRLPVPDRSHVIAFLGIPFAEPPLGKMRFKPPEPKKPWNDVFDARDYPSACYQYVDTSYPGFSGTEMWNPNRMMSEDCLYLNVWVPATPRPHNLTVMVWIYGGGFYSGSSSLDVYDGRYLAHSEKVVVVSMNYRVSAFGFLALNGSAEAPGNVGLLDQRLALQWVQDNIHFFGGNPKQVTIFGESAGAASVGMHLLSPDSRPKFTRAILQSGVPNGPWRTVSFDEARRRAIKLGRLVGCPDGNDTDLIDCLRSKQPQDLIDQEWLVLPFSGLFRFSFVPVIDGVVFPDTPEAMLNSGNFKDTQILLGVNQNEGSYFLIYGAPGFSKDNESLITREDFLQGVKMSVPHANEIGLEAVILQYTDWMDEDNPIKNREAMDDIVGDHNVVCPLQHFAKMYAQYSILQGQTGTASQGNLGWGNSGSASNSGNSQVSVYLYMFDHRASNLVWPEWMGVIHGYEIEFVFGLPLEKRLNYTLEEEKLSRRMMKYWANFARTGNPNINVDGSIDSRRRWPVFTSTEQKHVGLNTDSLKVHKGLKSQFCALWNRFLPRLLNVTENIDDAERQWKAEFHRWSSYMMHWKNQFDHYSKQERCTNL
Cholinesterase, sequence (P81908 whole entry): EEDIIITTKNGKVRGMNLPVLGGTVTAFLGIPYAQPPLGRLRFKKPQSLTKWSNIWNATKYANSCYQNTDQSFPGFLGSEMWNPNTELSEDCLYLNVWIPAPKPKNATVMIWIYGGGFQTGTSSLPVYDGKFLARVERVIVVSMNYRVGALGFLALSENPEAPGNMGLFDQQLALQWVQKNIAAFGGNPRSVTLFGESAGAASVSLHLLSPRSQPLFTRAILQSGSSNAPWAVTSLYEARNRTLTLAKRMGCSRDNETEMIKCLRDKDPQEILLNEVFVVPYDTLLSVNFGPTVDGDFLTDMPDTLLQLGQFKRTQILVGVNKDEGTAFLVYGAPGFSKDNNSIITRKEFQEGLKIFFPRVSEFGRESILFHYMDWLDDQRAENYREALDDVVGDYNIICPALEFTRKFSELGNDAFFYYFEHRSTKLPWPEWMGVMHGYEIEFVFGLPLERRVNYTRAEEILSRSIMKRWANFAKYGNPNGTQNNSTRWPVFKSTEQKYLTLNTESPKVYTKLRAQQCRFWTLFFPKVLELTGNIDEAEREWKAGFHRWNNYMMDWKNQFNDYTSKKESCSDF

Compound	IC50 (Cholinesterase) [µM]	IC50 (Acetylcholinesterase [1]) [nM]	Ki (Acetylcholinesterase [2]) [nM]
CCOc1ccc2c(c1)OC/C(=C\c1ccc(OCCCN3CCCCC3)cc1)C2=O	3.1	562	
CCOc1ccc2c(c1)OC/C(=C\c1ccc(OCCN3CCOCC3)cc1)C2=O	10.2	1000	
O=C1/C(=C/c2ccc(OCCCN3CCCCC3)cc2)COc2cc(O)ccc21	27.4	2380	
CCOc1ccc2c(c1)OC/C(=C\c1ccc(OCCN3CCCCC3)cc1)C2=O	0.854	122	270
O=C1/C(=C/c2ccc(OCCN3CCOCC3)cc2)COc2cc(O)ccc21	96	8160	
O=C1/C(=C/c2ccc(OCCN3CCCCC3)cc2)COc2cc(O)ccc21	2.16	192	
CCOc1ccc2c(c1)OC/C(=C\c1ccc(OCCCN3CCOCC3)cc1)C2=O	28.7	6840	
COc1ccc2c(c1)OC/C(=C\c1ccc(OCCN3CCCCC3)cc1)C2=O	8.2	173	
COc1ccc2c(c1)OC/C(=C\c1ccc(OCCCN3CCCC3)cc1)C2=O	6.85	1100	
COc1ccc2c(c1)OC/C(=C\c1ccc(OCCCN3CCCCC3)cc1)C2=O	26.3	3290	
O=C1/C(=C/c2ccc(OCCCN3CCOCC3)cc2)COc2cc(OCc3ccccc3)ccc21		50000	
O=C1/C(=C/c2ccc(OCCN3CCOCC3)cc2)COc2cc(OCc3ccccc3)ccc21	83.7	6440	
O=C1/C(=C/c2ccc(OCCCN3CCCC3)cc2)COc2cc(OCc3ccccc3)ccc21	49	3500	
O=C1/C(=C/c2ccc(OCCCN3CCCCC3)cc2)COc2cc(OCc3ccccc3)ccc21	32.4	2700	
COc1ccc2c(c1)OC/C(=C\c1ccc(OCCCN3CCOCC3)cc1)C2=O	101	13900	
COc1ccc2c(c1)OC/C(=C\c1ccc(OCCN3CCOCC3)cc1)C2=O	11.6	1900	
O=C1/C(=C/c2ccc(OCCN3CCCCC3)cc2)COc2cc(OCc3ccccc3)ccc21	2.58	207	
O=C1/C(=C/c2ccc(OCCCN3CCOCC3)cc2)COc2cc(O)ccc21		158000	
